US20250108036A1, “COMPOSITIONS FOR REMOVING SENESCENT CELLS AND USES THEREOF” (LIFECEUTIX CO., LTD., priority 2021, published 2025)

How the values were obtained:
Assay type in all cases: cell-based, human
HMGN1 [1] = assay: HMGN1 ELISA in culture medium of foreskin cells (Examples 10, 11; Tables 62, 63, 64); details: Homo sapiens, doxorubicin-treated foreskin cells, DMSO = 100; for activity at 30 µM: 30 μM test compound, read-out: HMGN1; for activity at 90 µM: 90 μM test compound; for activity at 270 µM: 270 μM test compound
A549 = assay: CellTiter-Glo cell viability of senescent A549 cancer cells (Example 12, Table 67); details: Homo sapiens, A549, doxorubicin-induced senescent A549 cancer cells, CellTiter-Glo, read-out: Survival (%); for viability at 1.1 µM: 1.1 μM test compound; for viability at 10 µM: 10 μM test compound; for viability at 30 µM: 30 μM test compound; for viability at 90 µM: 90 μM test compound; for viability at 270 µM: 270 μM test compound
[2] = tested on: foreskin cells in which senescence was induced by doxorubicin; assay: CellTiter-Glo cell viability of doxorubicin-induced senescent foreskin cells (Examples 1-2, 10, 11, 13; Tables 4, 63, 65); details: Homo sapiens, 72 h, doxorubicin-induced senescent foreskin cells, CellTiter-Glo, 0 μM = 100, read-out: Survival (%); for viability at 1.1 µM: 1.1 μM test compound; for viability at […]: […] test compound; for viability at 10 µM: 10 μM test compound; for viability at 30 µM: 30 μM test compound; for viability at 90 µM: 90 μM test compound; for viability at 270 µM: 270 μM test compound
Description: After 3 days, cell viability was measured using CellTiter-Glo Luminescent Cell Viability Assay (Promega) or light microscopy.

HMGN1 [3] = assay: HMGN1 ELISA in culture medium of A549 cancer cells (Example 12, Table 66); details: Homo sapiens, A549, doxorubicin-induced senescent A549 cells, ELISA, DMSO = 100, read-out: HMGN1 (amount of HMGN1 secreted in the cell culture); for activity at 30 µM: test compound 30 μM; for activity at 90 µM: test compound 90 μM; for activity at 270 µM: test compound 270 μM

Row | Structure (SMILES) | activity at 30 µM (HMGN1 [1]) [%] | viability at 1.1 µM (A549) [%] | viability at 10 µM (A549) [%] | viability at 1.1 µM [2] [%] | viability at […] [2] [%] | activity at 30 µM (HMGN1 [3]) [%] | activity at 90 µM (HMGN1 [1]) [%] | viability at 30 µM (A549) [%] | viability at 90 µM (A549) [%] | viability at 10 µM [2] [%] | viability at 30 µM [2] [%] | viability at 90 µM [2] [%] | activity at 90 µM (HMGN1 [3]) [%] | activity at 270 µM (HMGN1 [1]) [%] | viability at 270 µM (A549) [%] | viability at 270 µM [2] [%] | activity at 270 µM (HMGN1 [3]) [%]
1 | COC(=O)[C@@]1(C)CC[C@]2(C)CC[C@]3(C)[C@H](C(=O)C=C4[C@@]5(C)C=C(C#N)C(=O)C(C)(C)C5CC[C@]43C)[C@@H]2C1 (some centres unmarked) [LX-2513, Soloxolone methyl] | 325 | 105 | 6.9 | 49.6 | 2.6 | 311 | – | – | – | – | – | – | – | – | – | – | –
2 | CC1(C)C(=O)C(C#N)=C[C@]2(C)C3=CC(=O)[C@@H]4[C@@H]5C[C@@](C)(C(=O)NCCc6c[nH]c7ccccc67)CC[C@]5(C)CC[C@@]4(C)[C@]3(C)CCC12 (some centres unmarked) [LX-2517, Soloxolone tryptamide] | 298 | 8.4 | – | 0.6 | – | 318 | – | – | – | – | – | – | – | – | – | – | –
3 | C=C(CC)C(=O)c1ccc(OCC(=O)O)c(Cl)c1Cl [LX-2603, Ethacrynic acid, reference compound] | – | 98.7 | 89.1 | 100 | 103 | – | 218 | 41.5 | 1.8 | 95.8 | 52.6 | 37.8 | 245 | – | – | – | –
4 | CCCCC/C=C\C/C=C\C/C=C\C/C=C\CCCC(=O)O [LX-2701, Arachidonic acid] | – | 102 | 97.1 | 103 | 97.3 | – | 194 | 93.8 | 42.9 | 76.8 | 48.3 | 29.4 | 179 | – | – | – | –
5 | CC/C=C\C/C=C\C/C=C\C/C=C\C/C=C\C/C=C\CCC(=O)O [LX-2702, Docosahexaenoic acid] | – | 96.7 | 94.4 | 104 | 99.1 | – | 206 | 55.1 | 9.5 | 87.4 | 49.6 | 22.9 | 237 | – | – | – | –
6 | CCCCC/C=C\C/C=C\CCCCCCCC(=O)O [LX-2703, Linoleic acid] | – | 101 | 99.6 | 100 | 100 | – | 218 | 71.5 | 28.3 | 89.5 | 55.2 | 35.2 | 202 | – | – | – | –
7 | CCCCC/C=C\C/C=C\C/C=C\CCCCCCC(=O)O [LX-2705, Dihomogamma-linolenic acid] | – | 101 | 96.8 | 102 | 102 | – | 202 | 100 | 61.2 | 72.1 | 45.5 | 31.7 | 160 | – | – | – | –
8 | COC(=O)C1=C(C)NC(C)=C(C(=O)OC(C)(C)CN(C)CCC(c2ccccc2)c2ccccc2)C1c1cccc([N+](=O)[O-])c1 (centres unmarked) [LX-2801, Lercanidipine, reference compound] | 241 | 89.6 | 58.6 | 104 | 98.5 | 315 | – | 14.2 | – | 51.2 | 25.3 | – | – | – | – | – | –
9 | O=C1C(O)=C([C@H]2CC[C@H](c3ccc(Cl)cc3)CC2)C(=O)c2ccccc21 [LX-2802, Atovaquone, reference compound] | 268 | 101 | 74.1 | 102 | 81.2 | 279 | – | 35.7 | – | 58.4 | 17.2 | – | – | – | – | – | –
10 | COc1cc2nccc(Oc3ccc(NC(=O)NC4CC4)c(Cl)c3)c2cc1C(N)=O [LX-2803, Lenvatinib, reference compound] | 282 | 91.2 | 84.9 | 62 | 43.9 | 195 | – | 54.4 | – | 11.5 | 3.6 | – | – | – | – | – | –
11 | CCCCS(=N)(=O)CCC(N)C(=O)O (centres unmarked) [LX-2805, Buthionine sulfoximine] | – | 105 | 96.7 | 99.4 | 97.3 | – | – | 82.9 | 73.3 | 92 | 84.2 | 82 | – | 182 | 49.3 | 51.1 | 158
12 | C=CC(=O)Nc1cccc(Oc2nc(Nc3ccc(N4CCN(C)CC4)cc3)nc3ccoc23)c1 [LX-2902, Poseltinib, reference compound] | 297 | 95.7 | 72.4 | 1.9 | – | 271 | – | 31.2 | – | – | – | – | – | – | – | – | –
13 | CN(C)CCCN1c2ccccc2CCc2ccc(Cl)cc21 [LX-3101, Clomipramine, reference compound] | 284 | 89.2 | 7.1 | 93.3 | 75.8 | 334 | – | – | – | 11.7 | – | – | – | – | – | – | –
14 | O=C(NCc1ccncc1)C12CC3CC(C1)CC(c1ccc(Cl)cc1)(C3)C2 [LX-3106, Opaganib, reference compound] | – | 108 | 91.7 | 97.7 | 87.4 | – | 254 | 76.8 | 4.7 | 82.5 | 59.7 | 9.8 | 236 | – | – | – | –
15 | C[C@H](N)C(=O)N1C[C@H](CCCB(O)O)[C@](N)(C(=O)O)C1 [LX-3107] | 196 | 96.5 | 77.8 | 87.7 | 83.4 | 267 | – | 4.4 | – | 74.2 | 33.4 | – | – | – | – | – | –
16 | O=C(O)CCCCC(CCSCc1ccccc1)SCc1ccccc1 (centres unmarked) [LX-3109, Devimistat, reference compound] | – | 108 | 85.7 | 97.2 | 96 | – | – | 68.2 | 43.4 | 88.7 | 74 | 48.7 | – | 232 | 0.1 | 19.7 | 247
17 | CC(=O)N[C@@H](Cc1c[nH]c2ccccc12)C(=O)N[C@@H](CCC(=O)C=[N+]=[N-])C(=O)OC(C)C [LX-3201, Sirpiglenastat, reference compound] | 286 | 96.5 | 68.1 | 99.3 | 91.9 | 309 | – | 12.8 | – | 20.1 | – | – | – | – | – | – | –
18 | Cc1[nH]nc(C(F)(F)F)c1Cc1sc2c(c1C(=O)N1C[C@](C)(O)CO1)c(=O)n(C)c(=O)n2C(C)C [LX-3203] | 315 | 105 | 21.6 | 107 | 15.4 | 293 | – | – | – | – | – | – | – | – | – | – | –
19 | Nc1cccc2c1CN(C1CCC(=O)NC1=O)C2=O (centres unmarked) [LX-3207, Lenalidomide, reference compound] | 219 | 101 | 76.4 | 99.3 | 91.9 | 222 | – | 18.9 | – | 56.4 | 17.9 | – | – | – | – | – | –
20 | C=CC(=O)N1CCC[C@@H](n2nc(-c3ccc(Oc4ccccc4)cc3)c3c(N)ncnc32)C1 [LX-3209, Ibrutinib, reference compound] | 274 | 95.4 | 55.7 | 105 | 52.8 | 199 | – | 2.2 | – | 2 | – | – | – | – | – | – | –
